Measurements from patent US12433876B2, “Septin inhibitors for treatment of cancers” (UNIVERSITY OF ROCHESTER, priority 2019, dated 2025).

How the values were obtained:
HER2 = assay: Western blot of HER2 expression in ECC-1 and HCH-1 cells; format: cell-based; conditions: UR214-7 33 μM, UR214-9 33 μM, FCF 300 μM, 24 hours
Description: (§1) Cell lines, Culture, and Reagents. Cells were maintained in either DMEM (SKOV-3, KLE, OVCAR-3, OVCAR8-C5 and IGROV-1) or RPMI-1640 (ECC-1 and HCH-1), supplemented with 10% fetal calf serum (or 20% for OVCAR-3), penicillin (100 units/mL), and streptomycin (100 μg/mL) at 37° C. with 5% CO2 in a humidified incubator. Antibodies were purchased from Abcam (septin-2; ab179436) and Cell Signaling Technology; ERK (9102), p-ERK (4370), -actin (3700), u-Tubulin (2144), EGFR (4267) and HER2 (4290). FCF was purchased from Abcam. All other chemicals were from Sigma Aldrich. Synthesis of Derivaties. […] The reaction was monitored using thin-layer chromatography plates with DCM-MeOH or pure ethyl acetate as eluent. Spots were monitored in a UV chamber. The reaction mixture, upon completion of the reaction, was poured into wet ice mixture and triturated, then the separated solid was filtered by vacuum. The product was washed with hexane, followed by diethyl ether, and was dried under vacuum. The compounds were characterized by spectrophotometric techniques. Quantitative Real-Time PCR. The indicated cell lines were transfected with siRNA targeting septin-2 or non-targeting control siRNA (Santa Cruz Biotechnology: sc-37007 or sc-40936) using Lipofectamine 3000 (Invitrogen). […] Quantitative real-time PCR was conducted using QuantStudio 12 K Flex Real-Time PCR System (ABI) and the Taqman Gene Expression Assay (ABI) consisting of the FAM-labeled probes as follows: SEPT2 (Hs01565417_ml); WFDC2 (Hs00899484_ml); TBP (Hs00427620_ml) or B2M (Hs00187842_ml), which was used as reference for normalization. […] Cell viability, proliferation, and cellular apoptosis were measured using the MTS (Promega), BrdU cell proliferation (Cell Signaling Technology), and Caspase-Glo 3/7 apoptosis detection (Promega) assays, following the respective manufacturer's recommendations with suitable modification. […] Survival curves between septin high and low population and their statistical significance were analyzed using GraphPad Prism software (Mantel-Cox test). […]

ECC-1 cells = assay: MTS cell viability, ECC-1; format: cell-based; conditions: ECC-1, 48 hours
Description: as §1

Structure (SMILES) | HER2 expression (HER2) | viability (ECC-1 cells; MTS, lower dose ranges) | concentration inhibiting viability (ECC-1 cells; MTS (FIG. 2B))
O=C(Nc1ccccc1)Nc1ccnc(Cl)c1 [FCF, N-(2-chloro-4-pyridyl)-N′-phenylurea, reference compound] | inhibition of HER2 expression | lacked activity | 
O=C(Nc1cc(Cl)nc(Cl)c1)Nc1cccc(SC(F)(F)F)c1F [UR214-9] | inhibition of HER2 expression |  | around 33 μM
